According to patent publication US10551384B2, “MTOR kinase mutations and methods of use thereof” (RUTGERS, THE STATE UNIVERSITY OF NEW JERSEY, priority 2016, dated 2020):

Key:
[1] = system: SW480 colorectal cancer cells carrying L2185A mutant mTOR alleles; experiment: SRB growth assay of SW480 cells carrying L2185A mutant mTOR; format: cell-based, human; details: various concentrations, 2 day
Description: (FIG. 5A) SW480 cells carrying homozygous WT mTOR or L2185A mutant alleles were treated with various concentrations of AZD8055, INK-128, OSI-027 and PP242 for 2 day. Growth of SW480 cells was measured by SRB assay. Data represent means±SD in three independent experiments. (FIG. 5B) SW480 cells carrying homozygous WT and L2185A mutant mTOR allele were treated with a single dose of AZD8055 (100 nM), INK-128 (100 nM), OSI-027 (6,000 nM), and PP242 (2,000 nM) for different times. Cell growth was measured by SRB assay. The drug carrier DMSO was used as a control. Data represent means±SD in three independent experiments. (FIG. 5C) SW480 cells carrying homozygous WT and L2185A mutant mTOR were treated with various concentrations of INK-128, OSI-027, AZD8055 and PP242 for 1 hr. The effect on the level of P-S6K, S6K, P-4E-BP1, 4EB-P1, P-AKT and AKT was analyzed by immunoblot. […] The growth of SW480 cells was measured by SRB assay. Data represent means±SD in three independent experiments.
Cancer cell lines were maintained in DMEM or RPMI 1640, supplemented with 10% fetal bovine serum (Invitrogen) and 1% penicillin/streptomycin (Invitrogen). CRISPR/cas9 technology was used to engineer mutant mTOR allele in SW480 colorectal and H460 lung cancer cells. Briefly, The target sequence for mTOR, […] (SEQ ID NO: 3 was designed through the online tool at crispr.mit.edu, and cloned into pSPCas9(BB)-2A-GFP vector (PX458 in Addgene). Genomic mTOR mutation was engineered using a protocol as described (Ran, et al. (2013). Nature protocols 8, 2281-2308) and was confirmed by targeted sequencing.
Antibodies against tubulin, S6K, phospho-S6K (Thr389), 4E-BP1, phospho-4E-BP1 (Thr37/46), Akt, phospho-Akt (Thr308), and phospho-Akt (Ser473) were purchased from Cell Signaling Technology. […] For drug sensitivity test, cancer cells were seeded in 96-well plates at a density of 2,000 cells per well. 24 hours later, different concentrations of mTOR inhibitors were added in quadruplicate. Cell growth was measured by the sulforhodamine B (SRB) assay as previously described (Vichai, V., and Kirtikara, K. (2006). Nature protocols 1, 1112-1116).

[2] = system: xenograft tumors derived from SW480 cells expressing WT mTOR; experiment: SW480 xenograft tumor model, WT mTOR; format: in vivo, mice
Description: (§1) FIGS. 6A-E. L2185A mutation renders resistance of xenograft tumors to mTOR kinase inhibitors. (FIG. 6A) Mice bearing xenograft tumors derived from SW480 cells expressing WT mTOR were administered with INK128 at 1 mg/kg or 0.3 mg/kg, once daily via intraperitoneal injection. Shown are representative animals and excised tumors after drug treatment. (FIG. 6B) Same as FIG. 6A except xenograft tumors were derived from SW480 carrying homozygous mTOR(L2185A) alleles. (FIG. 6C) Tumor volume measurement for SW480 xenograft tumors expressing mTOR (WT) (expressed as means±SD; n=8, *P<0.01, vs. vehicle control). (FIG. 6D) Tumor volume measurement for SW480 xenograft tumors expressing mTOR(L2185A) mutant (expressed as means±SD; n=8). (FIG. 6E) Tissue extracts from xenograft tumors at the end of treatment with or without 1 mg/kg INK128 were analyzed for the level of P-S6K, S6K, P-S6, S6, P-4E-BP1, 4E-BP1, P-AKT and AKT was analyzed by immunoblot. Six tumor samples from each animal group were shown with each lane representing an individual tumor sample.
(§2) Female athymic NCr-nu/nu mice (4-6 weeks old) were obtained from Taconic Farms. […] Tumor volume was calculated by the following formula: tumor volume (mm^3)=(shorter diameter^2× longer diameter)/2 and are presented as means±SD (n=8) (Zhang, Y., and Zheng, X. (2012). Cell Cycle 11, 594-603). […]

[3] = system: xenograft tumors derived from SW480 cells carrying homozygous mTOR(L2185A) alleles; experiment: SW480 xenograft tumor model, mTOR(L2185A); format: in vivo, mice
Description: as §1, §2

[4] = 1 mg/kg or 0.3 mg/kg once daily, intraperitoneal injection
[5] = 1 mg/kg, tumor extracts at end of treatment, immunoblot

CC(C)n1nc(-c2ccc3oc(N)nc3c2)c2c(N)ncnc21 [INK128]
drug resistance/sensitivity of cell growth, SW480 L2185A vs WT [1]: confers resistance | growth of WT mTOR xenograft tumors [2, 4]: strongly attenuates growth | mTOR signaling in WT mTOR xenograft tumors [2, 5]: complete blockadge of mTOR signaling | growth of mTOR(L2185A) xenograft tumors [3, 4]: little or no effect | mTORC1 and mTORC2 signaling in mTOR(L2185A) xenograft tumors [3, 5]: drug-resistance in mTORC1 and mTORC2 signaling
